We go through nine compounds from patent US5583158A, “Prostaglandin E1 analogues” (Taisho Pharmaceutical Co., Ltd., priority 1992, dated 1996).

For orientation: IC50 means the concentration that inhibits the measured activity by half. A higher IC50 goes with weaker potency.

In this experiment the test system is rabbit platelet aggregation. The experiment can be described thus: Test for inhibition of rabbit platelet aggregation (ADP-induced, platelet-rich plasma, method of Born). The format is cell-based, rabbit (New Zealand White-strain). The conditions noted are these: Oryctolagus cuniculus, ADP final concentration 5 μM, 37° C., 3 minutes preincubation, maximum aggregation within 5 minutes. How it is done:
Test Example [Test for inhibition of rabbit platelet aggregation]
New Zealand White-strain rabbits (groups of four rabbits each weighing 2.5-4.0 to kg) were tested. Blood was collected from the common carotid artery of the rabbits under on ether anesthesic, and mixed with 3.2to % sodium citrate in volume ratio of 9:1. The blood was centrifuged at 1,100 rpm for 15 minutes to give a platelet-rich plasma (PRP) as a supernatant.
Blood platelet aggregation was determined according to the method of Born [Nature, Vol. 194, p. 927 (1962)]. To 275 to μl of PRP was added 1 μl of a solution of various concentrations of a test compound dissolved in ethanol; the mixture was stirred at 1,000 rpm at 37° C. for 3 minutes; then, in this state, 25 μl of an aggregation-inducing agent [adenosine diphosphate (ADP), final concentration: 5 μM] was added thereto to induce platelet aggregation; and by using an aggregometer, there was determined the maximum aggregation rate (the maximum change in light transmission within 5 minutes from the induction of platelet aggregation).
The aggregatian inhibition rate of the test compound was calculated from the maximum aggregation rate in the presence test compound relative to the maximum aggregation rate when ethanol was used instead of the solution of the test compound; the IC50 value of the test compound was determined from the concentration response curve.
`CCCC[C@@H](C)C[C@H](O)C#C[C@H]1[C@H](O)CC(=O)[C@@H]1CCCCOCC(=O)OC` [Compound 1, (17R)-17,20-Dimethyl-13,14-didehydro-3-oxa-PGE1 methyl ester] displayed an IC50 of 0.6 nM.

In turn, `CCCC[C@@H](C)C[C@H](O)C#C[C@H]1[C@H](O)CC(=O)[C@@H]1CCCCOCC(=O)O` [Compound 2, (17R)-17,20-Dimethyl-13,14-didehydro-3-oxa-PGE1] returned an IC50 of 0.66 nM. This IC50 and that of the compound before are within 1.5-fold of each other.

In turn, `COC(=O)CSCCCC[C@H]1C(=O)C[C@@H](O)[C@@H]1C#C[C@@H](O)C[C@@H](C)CCC=C(C)C` [Compound 3, (17S)-20-Isopropylidene-17-methyl-13, 14-didehydro-3-thia-PGE1 methyl ester] showed an IC50 of 0.39 nM.

In the case of `CC(C)=CCC[C@H](C)C[C@H](O)C#C[C@H]1[C@H](O)CC(=O)[C@@H]1CCCCSCC(=O)O` [Compound 4, (17S)-20-Isopropylidene-17-methyl-13,14-didehydro-3-thia-PGE1], inhibition was half-maximal at 0.26 nM (IC50).

For the compound `COC(=O)COCCCC[C@H]1C(=O)C[C@@H](O)[C@@H]1C#C[C@@H](O)C[C@H](C)CCC=C(C)C` [Compound 5, (17R)-20-Isopropylidene-17-methyl-13, 14-didehydro-3-oxa-PGE1 methyl ester], the IC50 worked out at 0.67 nM.

Turning to `CC(C)=CCC[C@@H](C)C[C@H](O)C#C[C@H]1[C@H](O)CC(=O)[C@@H]1CCCCOCC(=O)O` [Compound 6, (17R)-20-Isopropylidene-17-methyl-13, 14-didehydro-3-oxa-PGE1], the IC50 was 1.27 nM.

Consider `COC(=O)COCCCC[C@H]1C(=O)C[C@@H](O)[C@@H]1C#C[C@@H](O)CC1CCCCC1` [Control B, reference compound], for which the IC50 came out at 134 nM.

As for `CCCCC(C)[C@H](O)C#C[C@H]1[C@H](O)CC(=O)[C@@H]1CCCCSCC(=O)O` (stereo partly drawn) [Control C, reference compound], the IC50 was 911 nM. This IC50 lies about 6.8-fold higher than the previous one.

With `CCCCC(C)(C)C(O)C#C[C@H]1[C@H](O)CC(=O)[C@@H]1CCCCOCC(=O)OC` (stereo partly drawn) [Control D, reference compound], the IC50 was 1520 nM.
